These are literature values, as cited in US8420367B2, “Polynucleotides encoding mutant hydrolase proteins with enhanced kinetics and functional expression” (Promega Corporation, priority 2006, dated 2013).

This series deals with tetracysteine domain in a recombinant protein.

Consider `O=C1OC2(c3ccccc31)c1ccc(O)c([As]3SCCS3)c1Oc1c2ccc(O)c1[As]1SCCS1` [FLASH, 4′,5′-bis(1,3,2-dithioarsolan-2-yl)fluorescein], for which the dissociation constant result is recorded as “nanomolar or lower”.
